Laboratory results published in patent US4419123A, “Herbicidal 4-trifluoromethyl-3'-carbon-substituted-4'-substituted diphenyl ethers” (Rohm and Haas Company, priority 1981, dated 1983).

Columns and labels:
[1] = Preemergence herbicidal activity (% control) against monocot weeds; type: in vivo; details: pre-emergence, 336 h, average, about two weeks after application, read-out: Herbicidal activity (% control), preemergence, monocots; for activity at 2241.7 g/ha: 2 lb./A.; for activity at 4483.4 g/ha: 4 lb./A.
Excerpt: (§1) barnyardgrass (Echinochloa crusgalli) crabgrass (Digitaria spp.) nutsedge (Cyperus esculentus)
(§2) At 2 and 4 pounds per acre:
(§3) **Bermudagrass (Cynodon dactylon)
(§4) *downy brome (Bromus tectorum) foxtail (Setaria faberii)
(§5) Johnsongrass (Sorghum halepense) […]
(§6) quackgrass (Agropyron repens)
(§7) *ryegrass (Lolium perenne)
(§8) *wild oats (Avena factua)
(§9) *yellow millet (Panicum miliaceum)
(§10) The following test procedure is employed.

[2] = Postemergence herbicidal activity (% control) against monocot weeds; type: in vivo; details: post-emergence, 336 h, average, about two weeks after application, read-out: Herbicidal activity (% control), postemergence, monocots; for activity at 2241.7 g/ha: 2 lb./A.; for activity at 4483.4 g/ha: 4 lb./A.
Excerpt: as §1, §2, §3, §4, §5, §6, §7, §8, §9, §10

corn = experiment: Crop tolerance (selective herbicidal activity), corn; type: in vivo
Experimental: as §10
(§11) Following the general test procedure of Example 37, diphenyl ethers are evaluated for significant tolerance (as shown by 50% or less kill of the test crop at levels of application which give more than 50% kill of many or all of the weeds of Example 73) towards some or all of the following common agronomic crops (not all compounds tested against all crops): alfalfa, snapbeans, corn, cotton, cucumbers, peanuts, rape, rice, safflower, soybeans, tomatoes, and wheat.

peanuts = experiment: Crop tolerance (selective herbicidal activity), peanuts; type: in vivo
Experimental: as §10, §11

rice = experiment: Crop tolerance (selective herbicidal activity), rice; type: in vivo
Experimental: as §10, §11

soybeans = experiment: Crop tolerance (selective herbicidal activity), soybeans; type: in vivo
Experimental: as §10, §11

wheat = experiment: Crop tolerance (selective herbicidal activity), wheat; type: in vivo
Experimental: as §10, §11

[3] = Preemergence herbicidal activity (% control) against dicot weeds; details: pre-emergence, 336 h; for activity at 2241.7 g/ha: read-out: Herbicidal activity (% control), preemergence, dicots, 2 lb./A., average, about two weeks after application; for activity at 4483.4 g/ha: read-out: Herbicidal activity (% control), preemergence, dicots, 4 lb./A., average, about two weeks after application
[4] = Postemergence herbicidal activity (% control) against dicot weeds; details: post-emergence, 336 h; for activity at 2241.7 g/ha: read-out: Herbicidal activity (% control), postemergence, dicots, 2 lb./A., average, about two weeks after application; for activity at 4483.4 g/ha: read-out: Herbicidal activity (% control), postemergence, dicots, 4 lb./A., average, about two weeks after application
[5] = postemergence applications or applications on transplanted rice

Compound | activity at 2241.7 g/ha [1] [%] | activity at 4483.4 g/ha [1] [%] | activity at 2241.7 g/ha [2] [%] | activity at 4483.4 g/ha [2] [%] | Tolerance to corn (corn; postemergence applications) | Tolerance to corn (corn; preemergence applications) | Tolerance to peanuts (peanuts; postemergence applications) | Tolerance to peanuts (peanuts; preemergence applications) | Tolerance to rice (rice; [5]) | Tolerance to rice (rice; preemergence applications) | Tolerance to soybeans (soybeans; postemergence or layby applications) | Tolerance to soybeans (soybeans; preemergence applications) | Tolerance to wheat (wheat; postemergence applications) | Tolerance to wheat (wheat; preemergence applications) | activity at 2241.7 g/ha [3] [%] | activity at 4483.4 g/ha [3] [%] | activity at 2241.7 g/ha [4] [%] | activity at 4483.4 g/ha [4] [%]
CCC(=O)Nc1cc(Oc2ccc(C(F)(F)F)cc2Cl)ccc1[N+](=O)[O-] [Example 34] | 83 | 35 | 47 | 32 | Tolerance (significant tolerance (as shown by 50% or less kill of the test crop at levels of application which give more than 50% kill of many or all of the weeds of Example 73)) | Tolerance (significant tolerance (as shown by 50% or less kill of the test crop at levels of application which give more than 50% kill of many or all of the weeds of Example 73)) | Tolerance (significant tolerance (as shown by 50% or less kill of the test crop at levels of application which give more than 50% kill of many or all of the weeds of Example 73)) | Tolerance (significant tolerance (as shown by 50% or less kill of the test crop at levels of application which give more than 50% kill of many or all of the weeds of Example 73)) | Tolerance (significant tolerance (as shown by 50% or less kill of the test crop at levels of application which give more than 50% kill of many or all of the weeds of Example 73)) | Tolerance (significant tolerance (as shown by 50% or less kill of the test crop at levels of application which give more than 50% kill of many or all of the weeds of Example 73)) | Tolerance (significant tolerance (as shown by 50% or less kill of the test crop at levels of application which give more than 50% kill of many or all of the weeds of Example 73)) | Tolerance (significant tolerance (as shown by 50% or less kill of the test crop at levels of application which give more than 50% kill of many or all of the weeds of Example 73)) | Tolerance (significant tolerance (as shown by 50% or less kill of the test crop at levels of application which give more than 50% kill of many or all of the weeds of Example 73)) | Tolerance (significant tolerance (as shown by 50% or less kill of the test crop at levels of application which give more than 50% kill of many or all of the weeds of Example 73)) | 85 | 52 | 90 | 89
Cc1cc(Oc2ccc(C(F)(F)F)cc2Cl)ccc1[N+](=O)[O-] [Example 36] | 100 | 93 | 94 | 87 | Tolerance (significant tolerance (as shown by 50% or less kill of the test crop at levels of application which give more than 50% kill of many or all of the weeds of Example 73)) |  | Tolerance (significant tolerance (as shown by 50% or less kill of the test crop at levels of application which give more than 50% kill of many or all of the weeds of Example 73)) | Tolerance (significant tolerance (as shown by 50% or less kill of the test crop at levels of application which give more than 50% kill of many or all of the weeds of Example 73)) |  |  |  |  | Tolerance (significant tolerance (as shown by 50% or less kill of the test crop at levels of application which give more than 50% kill of many or all of the weeds of Example 73)) |  |  | 100 | 98 | 100
CCOc1cc(Oc2c(Cl)cc(C(F)(F)F)cc2Cl)ccc1[N+](=O)[O-] [Example 56, 2,6-Dichloro-α,α,α-trifluoro-p-tolyl-3-ethoxy-4-nitrophenyl ether] | 100 | 91 | 100 | 99 | Tolerance (significant tolerance (as shown by 50% or less kill of the test crop at levels of application which give more than 50% kill of many or all of the weeds of Example 73)) |  |  | Tolerance (significant tolerance (as shown by 50% or less kill of the test crop at levels of application which give more than 50% kill of many or all of the weeds of Example 73)) |  |  |  |  |  | Tolerance (significant tolerance (as shown by 50% or less kill of the test crop at levels of application which give more than 50% kill of many or all of the weeds of Example 73)) |  | 83 | 99 | 100
COC(=O)C(C)Oc1cc(Oc2ccc(C(F)(F)F)cc2Cl)ccc1[N+](=O)[O-] (centres unmarked) [Example 50] | 98 | 90 | 100 | 97 |  |  |  | Tolerance (significant tolerance (as shown by 50% or less kill of the test crop at levels of application which give more than 50% kill of many or all of the weeds of Example 73)) |  |  |  | Tolerance (significant tolerance (as shown by 50% or less kill of the test crop at levels of application which give more than 50% kill of many or all of the weeds of Example 73)) |  | Tolerance (significant tolerance (as shown by 50% or less kill of the test crop at levels of application which give more than 50% kill of many or all of the weeds of Example 73)) | 100 | 83 |  | 100
O=C(O)c1cc(Oc2ccc(C(F)(F)F)cc2Cl)ccc1[N+](=O)[O-] [Example 48, 2-Chloro-α,α,α-trifluoro-p-tolyl-3-carboxy-4-nitrophenylether] | 100 | 99 | 84 | 75 |  |  | Tolerance (significant tolerance (as shown by 50% or less kill of the test crop at levels of application which give more than 50% kill of many or all of the weeds of Example 73)) | Tolerance (significant tolerance (as shown by 50% or less kill of the test crop at levels of application which give more than 50% kill of many or all of the weeds of Example 73)) | Tolerance (significant tolerance (as shown by 50% or less kill of the test crop at levels of application which give more than 50% kill of many or all of the weeds of Example 73)) |  |  | Tolerance (significant tolerance (as shown by 50% or less kill of the test crop at levels of application which give more than 50% kill of many or all of the weeds of Example 73)) | Tolerance (significant tolerance (as shown by 50% or less kill of the test crop at levels of application which give more than 50% kill of many or all of the weeds of Example 73)) |  | 100 | 97 | 97 | 100
